Starred links: 1 amine or outer side, 2 acyl side, 3 side chain; linkers in the order of their positions; H or OH if unused. Positions of bridges follow the written chain, without caps; N, C: chain ends. Non-standard residues stand in square brackets, D forms with d. Residues, ends and D or L forms follow the SMILES beside them. Groups on a side chain read outwards from the residue. *: point of attachment. X4 = CCCCCCCCCCCCCCCC(=O)N[C@@H](CCC(=O)NCOCCOCC(=O)NCOCCOCC(=O)*)C(=O)O; γGlu = O=C(O)[C@H](CCC(=O)[*:2])N[*:1]; Stearoyl = CCCCCCCCCCCCCCCCCC(=O)*; Palmitoyl = CCCCCCCCCCCCCCCC(=O)*
experiment: in vivo; set-up: species or system Sprague-Dawley rats; settings: rat, iv, 0.033 mg/kg
Method: Peptides were dissolved in sterile saline and administered as a 1-hour intravenous infusion to non-fasted male Sprague-Dawley rats (n=3 per group) via femoral vein cannula at a final dose of 0.033 mg/kg. […] Blood samples (approximately 250 μL) were collected for pharmacokinetic analysis via a jugular vein cannula at 0.25, 0.5, 0.75, 1, 1.17, 1.33, 1.5, 2, 4, 6, 8, 24, 30 and 48 hr post-start of infusion into microtainer tubes containing K2EDTA as anticoagulant and 25 μL of a protease inhibitor cocktail. Plasma was prepared by centrifugation and stored at −80° C. until analysis. The results of this analysis are shown in Table 9 and few exemplars in FIGS. 3a-3b. […]
A 60 μL aliquot of each plasma sample was placed into to a 96-well plate. To each well was added 6 μL of 0.5% Tween-20. Plates were then vortexed mixed for 10 minutes at 1200 rpm before 180 μL of 0.1% TFA in 2:1 ethanol:acetonitrile containing an appropriate internal standard was added to each well. Plates were vortex mixed for 5 min at 1300 rpm, and then centrifuged for 10 min at 2844×g. Supernatants (180 μL) were placed into a clean 96-well plate and evaporated under a nitrogen stream at 45° C. Residues were reconstituted in 80 μL of 20% acetonitrile (aq) containing 0.1% formic acid.
A […] aliquot of each plasma sample was diluted with […] of 10 mM ammonium acetate (pH 6.8) containing an appropriate internal standard and loaded onto an Oasis WCX microElution plate (Waters Corporation, Milford, MA) that had been pre-conditioned with […] of methanol and […] of deionized water. Samples were washed with […] of 5% ammonium hydroxide (aq) followed by […] of 20% acetonitrile in water. The analyte was eluted with […] of 5% formic acid in 75:25 acetonitrile:water. The eluent was dried under a nitrogen stream. Residues were reconstituted in 80 μL of 20% acetonitrile (aq) containing 0.1% formic acid.
All calibration standards were prepared in control rat plasma containing K2EDTA and protease inhibitor cocktail.
Samples and standards were analyzed by TurbolonSpray™ UPLC-MS/MS using a system consisting of a CTC HTS PAL auto-injector (Leap, Carrboro, NC), an Agilent Infinity 1290 system with column oven (Palo Alto, CA), a Valco switching valve (Houston, TX), and either an AB Sciex API 5600 TripleTOF™ or Sciex API 4000QTrap mass spectrometer (Framingham, MA). Samples were injected onto a 2.1×50 mm reverse phase C18 analytical column, typically a Waters CORTECS UPLC C18+, 1.6 μm (Waters Corporation, Milford, MA) or similar. […] Initial conditions consisted of 90% A and 10% B. The organic component was increased to 95% B over a period of 3-4 minutes, depending on the peptide. Typical flow rates were 600 μL/min. The column temperature was held constant at 40 or 50° C. Peptides were quantified by monitoring one or more product ions produced from a multiply charged parent ion.

**Q.** For `CCCCCCCCCCCCCCCC(=O)NCC(=O)N[C@@H](CCC(=O)N[C@@H](CCC(=O)NCCCC[C@@H](NC(=O)[C@H](CCC(=O)O)NC(=O)[C@H](CC(N)=O)NC(=O)[C@H](C)NC(=O)[C@H](CC(C)C)NC(=O)[C@H](CCCNC(=N)N)NC(=O)[C@H](CCC(N)=O)NC(=O)[C@@H](NC(=O)[C@H](C)NC(=O)[C@@H]1CSSC[C@H](NC(=O)[C@@H](N)CO)C(=O)N[C@@H](CC(N)=O)C(=O)N[C@@H]([C@@H](C)O)C(=O)N[C@@H](CO)C(=O)N[C@@H]([C@@H](C)O)C(=O)N1)[C@@H](C)O)C(=O)N[C@@H](Cc1c[nH]cn1)C(=O)N[C@@H](CCCCN)C(=O)N[C@@H](CO)C(=O)N[C@@H](CO)C(=O)N[C@@H](CC(N)=O)C(=O)N[C@@H](CC(N)=O)C(=O)N[C@@H](Cc1ccccc1)C(=O)NCC(=O)N1CCC[C@H]1C(=O)N[C@H](C(=O)N[C@@H](CC(C)C)C(=O)N1CCC[C@H]1C(=O)N1CCC[C@H]1C(=O)N[C@H](C(=O)N[C@@H](CCCCN)C(=O)N[C@H](C(=O)NCC(=O)N[C@@H](CO)C(=O)N[C@@H](CCC(=O)O)C(=O)N[C@H](C(=O)N[C@@H](Cc1ccc(O)cc1)C(N)=O)[C@@H](C)O)C(C)C)[C@@H](C)O)[C@@H](C)CC)C(=O)O)C(=O)O` [Compound A39] (H-SCNTSTCATQRLANE[dK]([γGlu-γGlu-Gly-Palmitoyl])HKSSNNFGPILPPTKVGSETY-NH2; disulfide 2-7), which Vd is on record?
**A.** Its Vd is 0.502 L/kg.

**Q.** And the clearance?
**A.** Its clearance is 0.081 L/h/kg.

**Q.** And the half-life?
**A.** The half-life was 4.85 h.

**Q.** For `CCCCCCCCCCCCCCCC(=O)N[C@@H](CCC(=O)NCCCC[C@H](NC(=O)[C@H](CC(N)=O)NC(=O)[C@H](C)NC(=O)[C@H](CC(C)C)NC(=O)[C@H](CCCNC(=N)N)NC(=O)[C@H](CCC(N)=O)NC(=O)[C@@H](NC(=O)[C@H](C)NC(=O)[C@@H]1CSSC[C@H](NC(=O)[C@@H](N)CO)C(=O)N[C@@H](CC(N)=O)C(=O)N[C@@H]([C@@H](C)O)C(=O)N[C@@H](CO)C(=O)N[C@@H]([C@@H](C)O)C(=O)N1)[C@@H](C)O)C(=O)N[C@@H](CC(C)C)C(=O)N[C@@H](Cc1c[nH]cn1)C(=O)N[C@@H](CCCCN)C(=O)N[C@@H](CO)C(=O)N[C@@H](CO)C(=O)N[C@@H](CC(N)=O)C(=O)N[C@@H](CC(N)=O)C(=O)N[C@@H](Cc1ccccc1)C(=O)NCC(=O)N1CCC[C@H]1C(=O)N[C@H](C(=O)N[C@@H](CC(C)C)C(=O)N1CCC[C@H]1C(=O)N1CCC[C@H]1C(=O)N[C@H](C(=O)N[C@@H](CCCCN)C(=O)N[C@H](C(=O)NCC(=O)N[C@@H](CO)C(=O)N[C@@H](CCC(=O)O)C(=O)N[C@H](C(=O)N[C@@H](Cc1ccc(O)cc1)C(N)=O)[C@@H](C)O)C(C)C)[C@@H](C)O)[C@@H](C)CC)C(=O)O` [Compound A42] (H-SCNTSTCATQRLANK([γGlu-Palmitoyl])LHKSSNNFGPILPPTKVGSETY-NH2; disulfide 2-7), which Vd is on record?
**A.** Its Vd is 0.552 L/kg.

**Q.** And the clearance?
**A.** The clearance was 1.42 L/h/kg.

**Q.** And the half-life?
**A.** Its half-life is 0.391 h.

**Q.** Which results are given for `CCCCCCCCCCCCCCCC(=O)N[C@@H](CCC(=O)N[C@@H](CCC(=O)N[C@@H](CCC(=O)NCCCC[C@@H](NC(=O)[C@H](CCC(=O)O)NC(=O)[C@H](CC(N)=O)NC(=O)[C@H](C)NC(=O)[C@H](CC(C)C)NC(=O)[C@H](CCCNC(=N)N)NC(=O)[C@H](CCC(N)=O)NC(=O)[C@@H](NC(=O)[C@H](C)NC(=O)[C@@H]1CSSC[C@H](NC(=O)[C@@H](N)CO)C(=O)N[C@@H](CC(N)=O)C(=O)N[C@@H]([C@@H](C)O)C(=O)N[C@@H](CO)C(=O)N[C@@H]([C@@H](C)O)C(=O)N1)[C@@H](C)O)C(=O)N[C@@H](Cc1c[nH]cn1)C(=O)N[C@@H](CCCCN)C(=O)N[C@@H](CO)C(=O)N[C@@H](CO)C(=O)N[C@@H](CC(N)=O)C(=O)N[C@@H](CC(N)=O)C(=O)N[C@@H](Cc1ccccc1)C(=O)NCC(=O)N1CCC[C@H]1C(=O)N[C@H](C(=O)N[C@@H](CC(C)C)C(=O)N1CCC[C@H]1C(=O)N1CCC[C@H]1C(=O)N[C@H](C(=O)N[C@@H](CCCCN)C(=O)N[C@H](C(=O)NCC(=O)N[C@@H](CO)C(=O)N[C@@H](CCC(=O)O)C(=O)N[C@H](C(=O)N[C@@H](Cc1ccc(O)cc1)C(N)=O)[C@@H](C)O)C(C)C)[C@@H](C)O)[C@@H](C)CC)C(=O)O)C(=O)O)C(=O)O` [Compound A53] (H-SCNTSTCATQRLANE[dK]([γGlu-γGlu-γGlu-Palmitoyl])HKSSNNFGPILPPTKVGSETY-NH2; disulfide 2-7)?
**A.** Vd: 0.174 L/kg; clearance: 0.0287 L/h/kg; half-life: 5.16 h

**Q.** Which results are given for `CCCCCCCCCCCCCCCCCC(=O)N[C@@H](CCC(=O)N[C@@H](CCC(=O)NCCCC[C@@H](NC(=O)[C@H](CCC(=O)O)NC(=O)[C@H](CC(N)=O)NC(=O)[C@H](C)NC(=O)[C@H](CC(C)C)NC(=O)[C@H](CCCNC(=N)N)NC(=O)[C@H](CCC(N)=O)NC(=O)[C@@H](NC(=O)[C@H](C)NC(=O)[C@@H]1CSSC[C@H](NC(=O)[C@@H](N)CO)C(=O)N[C@@H](CC(N)=O)C(=O)N[C@@H]([C@@H](C)O)C(=O)N[C@@H](CO)C(=O)N[C@@H]([C@@H](C)O)C(=O)N1)[C@@H](C)O)C(=O)N[C@@H](Cc1c[nH]cn1)C(=O)N[C@@H](CCCCN)C(=O)N[C@@H](CO)C(=O)N[C@@H](CO)C(=O)N[C@@H](CC(N)=O)C(=O)N[C@@H](CC(N)=O)C(=O)N[C@@H](Cc1ccccc1)C(=O)NCC(=O)N1CCC[C@H]1C(=O)N[C@H](C(=O)N[C@@H](CC(C)C)C(=O)N1CCC[C@H]1C(=O)N1CCC[C@H]1C(=O)N[C@H](C(=O)N[C@@H](CCCCN)C(=O)N[C@H](C(=O)NCC(=O)N[C@@H](CO)C(=O)N[C@@H](CCC(=O)O)C(=O)N[C@H](C(=O)N[C@@H](Cc1ccc(O)cc1)C(N)=O)[C@@H](C)O)C(C)C)[C@@H](C)O)[C@@H](C)CC)C(=O)O)C(=O)O` [Compound A56] (H-SCNTSTCATQRLANE[dK]([γGlu-γGlu-Stearoyl])HKSSNNFGPILPPTKVGSETY-NH2; disulfide 2-7)?
**A.** Vd: 0.469 L/kg; clearance: 0.0804 L/h/kg; half-life: 4.29 h

**Q.** With `CCCCCCCCCCCCCCCC(=O)N[C@@H](CCC(=O)NCOCCOCC(=O)NCOCCOCC(=O)N[C@@H](CCC(=O)NCCCC[C@H](NC(=O)[C@H](CCC(=O)O)NC(=O)[C@H](CC(N)=O)NC(=O)[C@H](C)NC(=O)[C@H](CC(C)C)NC(=O)[C@H](CCCNC(=N)N)NC(=O)[C@H](CCC(N)=O)NC(=O)[C@@H](NC(=O)[C@H](C)NC(=O)[C@@H]1CSSC[C@H](NC(=O)[C@@H](N)CO)C(=O)N[C@@H](CC(N)=O)C(=O)N[C@@H]([C@@H](C)O)C(=O)N[C@@H](CO)C(=O)N[C@@H]([C@@H](C)O)C(=O)N1)[C@@H](C)O)C(=O)N[C@@H](Cc1c[nH]cn1)C(=O)N[C@@H](CCCCN)C(=O)N[C@@H](CO)C(=O)N[C@@H](CO)C(=O)N[C@@H](CC(N)=O)C(=O)N[C@@H](CC(N)=O)C(=O)N[C@@H](Cc1ccccc1)C(=O)NCC(=O)N1CCC[C@H]1C(=O)N[C@H](C(=O)N[C@@H](CC(C)C)C(=O)N1CCC[C@H]1C(=O)N1CCC[C@H]1C(=O)N[C@H](C(=O)N[C@@H](CCCCN)C(=O)N[C@H](C(=O)NCC(=O)N[C@@H](CO)C(=O)N[C@@H](CCC(=O)O)C(=O)N[C@H](C(=O)N[C@@H](Cc1ccc(O)cc1)C(N)=O)[C@@H](C)O)C(C)C)[C@@H](C)O)[C@@H](C)CC)C(=O)O)C(=O)O` [Compound A63] (H-SCNTSTCATQRLANEK([γGlu-X4])HKSSNNFGPILPPTKVGSETY-NH2; disulfide 2-7; N-terminus assumed) as the compound, how does the Vd read?
**A.** Its Vd is 0.54 L/kg.

**Q.** What about the clearance of the same compound?
**A.** The clearance was 0.16 L/h/kg.

**Q.** And the half-life?
**A.** The half-life was 2.81 h.
